Source: patent publication US20230391752A1, “PYRROLIDINE-3-CARBOXAMIDE DERIVATIVES AND RELATED USES” (Chulalongkorn University, priority 2020, published 2023)
pEC50: −log10 of the molar value.

Key:
HBV [1] = assay: In vitro anti-HBV activity in HepG2.2.15 cell line (intracellular HBV DNA by qPCR at 1 μM); type: cell-based; conditions: Hepatitis B virus, 144 h; HepG2.2.15 cells, 1 μM compound, 6 days, intracellular HBV DNA as percentage compared to vehicle control (0.5% DMSO)
Outline: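 HepG2.2.15 cells given compound at 1 μM (0.5% DMSO final) for 3 days, then fresh compound-containing medium for 3 more days. After 6 days intracellular HBV DNA measured by qPCR. Expressed as % of 0.5% DMSO vehicle control and binned into letter ranges.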

HBV [2] = assay: Effect on intrahepatic HBV DNA levels in HepG2.2.15 cells (EC50); type: cell-based; conditions: Hepatitis B virus, 144 h, 6 days, intrahepatic HBV DNA by qPCR, read-out: Anti-HBV DNA (EC50)
Outline: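 Over 6 days at 37° C., HepG2.2.15 cells were treated with compound in 10% FCS medium, refreshed with compound after day 3. Intracellular HBV DNA was quantified by qPCR from cell lysates, and EC50 fitted by nonlinear regression relative to no-drug controls.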

[3] = Cytotoxicity (MTT) in HepG2.2.15 cells; type: cell-based; conditions: human, 6 days treatment, read-out: HepG2.1.15 cytotoxicity (CC50)
Procedure: HepG2.2.15 cells were seeded onto 96-well culture plate and allowed to adhere for 24 hours. The cells were treated with various concentrations of the compounds for 6 days. After treatment, the culture media were discarded and further incubated with serum-free media containing […] of 3-(4,5-dimethylthiazol-2-yl)-2,5-diphenyl tetrazolium bromide (MTT) for 2 hour. The resulting formazan crystals were completely dissolved in dimethyl sulfoxide (DMSO), and then measured absorbance at 570 nm using microplate reader. The concentrations of compounds producing 50% cell death (CC50) were determined from a fitting of concentration-response curve (% cell viability versus concentration) to a four-parameter equation.

HBV core protein (Cp149) [4] = target: T1, HBV core protein (Cp149) (Hepatitis B virus genotype D subtype ayw, UniProt P03146); assay: HBV capsid assembly by size exclusion chromatography (SEC); type: biochemical; conditions: 50 μM compound, 15 μM Cp149, 16 hours at 21° C.
T1 construct: HBV core C-terminally truncated protein (HBV Cp149); made in house

HBV core protein (Cp149) [5] = target: T1, HBV core protein (Cp149); assay: HBV capsid assembly by electron microscopy (EM); type: biochemical; conditions: 50 μM compound, 15 μM Cp149, negative stain
HBV capsid = target: T2, HBV capsid (Hepatitis B virus genotype D subtype ayw, UniProt P03146); assay: Mechanistic study in stably HBV expressed HepG2.2.15 cells (capsid, encapsidated DNA/RNA, core protein blots); type: cell-based; conditions: HepG2.2.15, 6 days; for HBV capsid (formation of DNA- and RNA-devoid capsid): various concentrations; for Intracellular HBV core protein level: western blot
T2 construct: expressed in transfected cells; host or cells: HepG2.2.15
Procedure: The stably HBV expressed HepG2.2.15 cells were treated with test compounds, at various concentrations in culture medium, at 37° C. for three days. After that the medium was removed and fresh medium containing the compound was added to the cells for another 3 days. After 6 days of treatment, cellular lysates from the treated cells were assessed by non-denatured agarose gel electrophoresis. HBV capsid was detected by western blot with monoclonal anti-HBV core. Encapsidated HBV DNA and RNA were detected by southern blot and northern blot. Intracellular HBV core protein was assessed by western Blot with a monoclonal mouse anti-HBV core. β-actin protein assessed by western blot was used as an internal control.

HBV genotype D = assay: HBV-infected primary human hepatocytes (PHH); type: cell-based, Hepatitis B virus; conditions: for cccDNA establishment in PHH: treatment scheme 1, southern blot
Procedure: Primary human hepatocytes (PHH) were infected with HBV genotype D produced from HepG2.2.15 cell line on day 1 after plating. Subsequently, the PHH were treated with various concentrations of compounds into 2 different treatment schemes. For treatment scheme 1, the compounds were added into PHH simultaneously with infection media, and incubated for additional 6 days. For treatment scheme 2, the compounds were added into PHH at day 3 after infection, and further incubated for 6 days. After treatment, the cell culture supernatants were collected for the determinations of HBV DNA by qPCR, pgRNA by RT-PCR, HBsAg and HBeAg by ELISA, and cell viability by CCK-8. The cells were harvested for detection of intracellular cccDNA by southern blot.

[6] = Pharmacokinetic study in rats; type: in vivo, male Sprague-Dawley rats; conditions: for CL (mL/min/kg) Rat / Vd: IV 0.2 to 0.5 mg/kg; for Vd / half-life: male, Sprague-Dawley, plasma, rat; for Vd: read-out: Vd,ss (L/kg) Rat; for half-life: read-out: t1/2 (h) Rat (converted)
Procedure: (§1) Test compounds were administered to male Sprague-Dawley rats and male Beagle dogs by oral (PO) and intravenous (TV) administration. For TV dosing, test compounds were dosed at 0.2 to 0.5 mg/kg using a formulation of 10% dimethyl sulfoxide in 20% hydroxypropyl beta-cyclodextrin solution via IV bolus. For PO dosing, test compounds were dosed at 0.3 to 2.0 mg/kg using a formulation of 40% polyethylene glycol 400 in water via oral gavage. Blood samples were collected at pre-dose and various time points up to 24 hours post-dose, and centrifuged to obtain plasma samples. The plasma concentrations of test compounds were quantified by LC-MS/MS methods. The relevant pharmacokinetic parameters (Table D) were calculated via non-compartmental analysis using WinNonlin (Phoenix™, version 8.3).

[7] = Pharmacokinetic study in dogs; type: in vivo, male Beagle dogs; conditions: for F (%) Dog: PO 0.3 to 2.0 mg/kg; for half-life / clearance / Vd: male, Beagle, dog, plasma; for half-life: read-out: t1/2 (h) Dog (converted); for clearance / Vd: IV 0.2 to 0.5 mg/kg; for clearance: read-out: CL (mL/min/kg) Dog; for Vd: read-out: Vd,ss (L/kg) Dog
Procedure: as §1

T1 sequence (P03146 1-149): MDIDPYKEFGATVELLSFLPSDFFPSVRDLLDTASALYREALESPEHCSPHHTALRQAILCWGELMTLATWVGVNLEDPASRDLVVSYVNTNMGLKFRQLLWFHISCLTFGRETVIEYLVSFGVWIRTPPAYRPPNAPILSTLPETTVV
T2 sequence (P03146 whole entry): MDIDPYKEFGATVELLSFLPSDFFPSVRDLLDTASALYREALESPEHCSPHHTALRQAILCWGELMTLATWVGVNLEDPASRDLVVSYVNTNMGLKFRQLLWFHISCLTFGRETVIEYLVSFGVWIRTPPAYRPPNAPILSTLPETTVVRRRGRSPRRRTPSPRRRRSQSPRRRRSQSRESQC

SMILES	activity at 1 µM (HBV [1]) [%]	pEC50 (HBV [2])	CC50 at 6 days [3] [µM]	Size of induced capsids based on SEC retention times (HBV core protein (Cp149) [4])	Capsid morphology by EM (HBV core protein (Cp149) [5])	HBV capsid (formation of DNA- and RNA-devoid capsid) (HBV capsid)	Intracellular HBV core protein level (HBV capsid)	HBeAg in PHH (HBV genotype D; treatment scheme 1)	HBsAg in PHH (HBV genotype D; treatment scheme 1)	HBV DNA in PHH (HBV genotype D; treatment scheme 1 (compound added simultaneously with infection media, 6 days))	cccDNA establishment in PHH (HBV genotype D)	CL (mL/min/kg) Rat [6] [mL/min/kg]	Vd [6] [L/kg]	half-life [6] [h]	F (%) Dog [7] [%]	half-life [7] [h]	clearance [7] [mL/min/kg]	Vd [7] [L/kg]	F (%) Rat ([6]; PO 0.3 to 2.0 mg/kg) [%]	Formation of capsids (SEC) (HBV core protein (Cp149) [4])
C[C@H]1[C@@H](C(=O)Nc2cc(F)c(F)c(F)c2)CCN1C(=O)c1[nH]c2ccccc2c1Cl [Example 42, (2S,3S)-1-(3-chloro-1H-indole-2-carbonyl)-2-methyl-N-(3,4,5-trifluorophenyl)pyrrolidine-3-carboxamide]	< 45	6.52 to 7.30	> 25	capsid retention times between BAY 41-4109 and NVR 3-778	resulted in larger but normal shape spheres	dose-dependently accelerated formation of DNA- and RNA-devoid capsid	had no effect on intracellular HBV core protein level	inhibited	inhibited	inhibited	inhibited	–	–	–	–	–	–	–	–	–
Cc1ncnc(C)c1-c1ccc(C(=O)N2CC[C@H](C(=O)Nc3cc(F)c(F)c(F)c3)C2)[nH]1 [Example 85, (S)-1-(5-(4,6-dimethylpyrimidin-5-yl)-1H-pyrrole-2-carbonyl)-N-(3,4,5-trifluorophenyl) pyrrolidine-3-carboxamide]	< 45	> 7.30	10 to 25	induced capsids similar in size to NVR 3-778	–	–	–	–	–	–	–	15.2	2.88	3.6	~100	6.2	4.4	1.64	–	–
C=C1[C@H](CO)[C@@H](O)C[C@@H]1n1cnc2c(=O)[nH]c(N)nc21 [Entecavir, entecavir, reference compound]	–	–	–	–	–	had no effects	had no effects	–	–	–	had no effect on cccDNA establishment	–	–	–	–	–	–	–	–	–
Cc1ncnc(C)c1-c1ccc(C(=O)N2CC[C@H](C(=O)Nc3ccc(F)c(Cl)c3)[C@@H]2C)[nH]1 [Example 104, (2S,3S)—N-(3-chloro-4-fluorophenyl)-1-(5-(4,6-dimethylpyrimidin-5-yl)-1H-pyrrole-2-carbonyl)-2-methylpyrrolidine-3-carboxamide]	< 45	> 7.30	10 to 25	induced capsids similar in size to NVR 3-778	showed similar results as for NVR 3-778	dose-dependently accelerated formation of DNA- and RNA-devoid capsid	had no effect on intracellular HBV core protein level	–	–	–	–	12.3	1.93	1.9	53	14.2	1.5	1.67	66	–
COC(=O)C1=C(C)NC(c2ncc(F)cc2F)=N[C@H]1c1ccc(F)cc1Cl [BAY 41-4109, reference compound]	–	–	–	larger in size, as compared to NVR 3-778	the capsids appeared larger and misassembled with an irregular shape	–	–	–	–	–	–	–	–	–	–	–	–	–	–	increased the formation of capsids
